Source: patent US20070128217A1 (priority 2003, published 2007)

Assays:
[1] = test system: antibodies in sera from SARS patients (sera 1a, 1b, 2, 6, 37, 62, London, SARS-yellow, SARS-green); format: binding, human; parameters: Binding of serum 6 to linear peptides of protein X1 of SARS-CoV Urbani / Binding of serum 37 to linear peptides of protein X1 of SARS-CoV Urbani / Binding of serum 6 to looped/cyclic peptide (PEPSCAN-ELISA) / Binding of serum 37 to looped/cyclic peptide (PEPSCAN-ELISA) / Binding of serum 37 to looped/cyclic peptides of protein X1 of SARS-CoV Urbani / Binding of serum 6 to linear peptides of protein X2 / Binding of serum 37 to linear peptides of protein X2 / Binding of serum 37 to looped/cyclic peptides of protein X2 of SARS-CoV Urbani / Binding of serum 6 to linear peptides of protein M of SARS-CoV Urbani / Binding of serum 37 to linear peptides of protein M of SARS-CoV Urbani / Binding of serum 6 to looped/cyclic peptides of protein M of SARS-CoV Urbani / Binding of serum 37 to looped/cyclic peptides of protein M of SARS-CoV Urbani / Binding of serum 6 to linear peptides of protein X3 of SARS-CoV Urbani / Binding of serum 37 to linear peptides of protein X3 of SARS-CoV Urbani / Binding of serum 37 to looped/cyclic peptides of protein X3 of SARS-CoV Urbani / Binding of serum 6 to linear peptides of protein X4 of SARS-CoV Urbani / Binding of serum 37 to linear peptides of protein X4 of SARS-CoV Urbani / Binding of serum 37 to looped/cyclic peptides of protein X4 of SARS-CoV Urbani / Binding of serum 6 to linear peptides of protein X5 of SARS-CoV Urbani / Binding of serum 37 to linear peptides of protein X5 of SARS-CoV Urbani / Binding of serum 37 to looped/cyclic peptides of protein X5 of SARS-CoV Urbani / Binding of serum 6 to linear peptides of protein N of SARS-CoV Urbani / Binding of serum 37 to linear peptides of protein N of SARS-CoV Urbani / Binding of serum 6 to linear peptide (PEPSCAN-ELISA) / Binding of serum 1a to looped/cyclic peptides of protein N of SARS-CoV Urbani / Binding of serum 1b to looped/cyclic peptides of protein N of SARS-CoV Urbani / Binding of serum 2 to looped/cyclic peptides of protein N of SARS-CoV Urbani / Binding of serum 6 to looped/cyclic peptides of protein N of SARS-CoV Urbani / Binding of serum 37 to looped/cyclic peptides of protein N of SARS-CoV Urbani / Binding of serum 62 to looped/cyclic peptides of protein N of SARS-CoV Urbani / Binding of serum London to looped/cyclic peptides of protein N of SARS-CoV Urbani / Binding of serum SARS-green to looped/cyclic peptides of protein N of SARS-CoV Urbani: unit not given here
[2] = test system: control sera (pooled serum of ten healthy LUMC hospital workers; commercial negative donor pooled serum from the Dutch bloodbank); format: binding, human; parameters: Binding of Control serum LUMC to linear peptides / Binding of Control serum Blood-bank to linear peptides / Binding of Control serum LUMC to looped peptides / Binding of Control Serum Blood-Bank to Looped peptides / Binding of Control serum LUMC to linear peptides of the protein M of SARS-CoV Urbani / Binding of Control serum Blood-bank to linear peptides of the protein M of SARS-CoV Urbani / Binding of Control serum LUMC to looped peptides of the protein M of SARS-CoV Urbani / Binding of Control Serum Blood-Bank to Looped peptides of the protein M of SARS-CoV Urbani: unit not given here
[3] = test system: rabbit serum obtained by immunizing a rabbit with the SARS-CoV strain Frankfurt 1; format: binding; parameters: Binding of a rabbit serum to linear peptides / Binding of a rabbit serum to looped peptides / Rabbit serum linear peptides / Rabbit serum looped peptides / Binding of a rabbit serum to linear peptides of protein N of SARS-CoV Urbani (Rabbit serum linear peptides) / Binding of a rabbit serum to looped/cyclic peptides of protein N of SARS-CoV Urbani (Rabbit serum looped peptides): unit not given here

LYLYALIYFLQCINA
0.3: Binding of serum 1a to looped/cyclic peptide (PEPSCAN-ELISA) [1] | Binding of serum 1b to looped/cyclic peptide (PEPSCAN-ELISA) [1] | Binding of serum 6 to linear peptides of protein X1 of SARS-CoV Urbani [1] | Binding of serum 6 to looped/cyclic peptide (PEPSCAN-ELISA) [1] | Binding of serum SARS-yellow to looped/cyclic peptide (PEPSCAN-ELISA) [1]
0.7: Binding of serum 1a to linear peptides of protein X1 of SARS-CoV Urbani [1]
0.2: Binding of serum 2 to looped/cyclic peptide (PEPSCAN-ELISA) [1] | Binding of serum London to linear peptides of protein X1 of SARS-CoV Urbani [1] | Binding of serum London to looped/cyclic peptide (PEPSCAN-ELISA) [1] | Binding of serum SARS-green to linear peptides of protein X1 of SARS-CoV Urbani [1] | Binding of serum SARS-green to looped/cyclic peptide (PEPSCAN-ELISA) [1]
0.5: Binding of serum 1b to linear peptides of protein X1 of SARS-CoV Urbani [1] | Binding of serum 37 to linear peptides of protein X1 of SARS-CoV Urbani [1] | Binding of serum 62 to linear peptides of protein X1 of SARS-CoV Urbani [1] | Binding of serum SARS-yellow to linear peptides of protein X1 of SARS-CoV Urbani [1] | Binding of Control Serum Blood-Bank to Looped peptides [2] | Binding of Control serum Blood-bank to linear peptides [2] | Binding of Control serum LUMC to linear peptides [2] | Binding of a rabbit serum to looped peptides [3]
0.1: Binding of a rabbit serum to linear peptides [3]
0.4: Binding of serum 2 to linear peptides of protein X1 of SARS-CoV Urbani [1] | Binding of serum 37 to looped/cyclic peptide (PEPSCAN-ELISA) [1] | Binding of serum 62 to looped/cyclic peptide (PEPSCAN-ELISA) [1] | Binding of Control serum LUMC to looped peptides [2]

MCLKILVRYNTRGNT
0.6: Binding of serum 1b to linear peptides of protein X5 of SARS-CoV Urbani [1] | Binding of Control serum LUMC to linear peptides [2]
0.3: Binding of serum 1b to looped/cyclic peptides of protein X5 of SARS-CoV Urbani [1]
0.7: Binding of serum 62 to looped/cyclic peptides of protein X5 of SARS-CoV Urbani [1] | Binding of serum SARS-yellow to linear peptides of protein X5 of SARS-CoV Urbani [1] | Rabbit serum linear peptides [3]
1.4: Binding of serum 6 to linear peptides of protein X5 of SARS-CoV Urbani [1]
0.4: Binding of serum 6 to looped/cyclic peptides of protein X5 of SARS-CoV Urbani [1] | Binding of serum London to looped/cyclic peptides of protein X5 of SARS-CoV Urbani [1] | Binding of Control Serum Blood-Bank to Looped peptides [2]
0.9: Binding of serum 37 to linear peptides of protein X5 of SARS-CoV Urbani [1] | Binding of serum 62 to linear peptides of protein X5 of SARS-CoV Urbani [1] | Binding of serum SARS-green to linear peptides of protein X5 of SARS-CoV Urbani [1]
0.5: Binding of serum 1a to looped/cyclic peptides of protein X5 of SARS-CoV Urbani [1] | Binding of serum 2 to looped/cyclic peptides of protein X5 of SARS-CoV Urbani [1] | Binding of serum 37 to looped/cyclic peptides of protein X5 of SARS-CoV Urbani [1] | Binding of Control serum LUMC to looped peptides [2] | Rabbit serum looped peptides [3]
0.2: Binding of serum SARS-green to looped/cyclic peptides of protein X5 of SARS-CoV Urbani [1]
0.8: Binding of serum 1a to linear peptides of protein X5 of SARS-CoV Urbani [1] | Binding of serum 2 to linear peptides of protein X5 of SARS-CoV Urbani [1] | Binding of serum London to linear peptides of protein X5 of SARS-CoV Urbani [1] | Binding of serum SARS-yellow to looped/cyclic peptides of protein X5 of SARS-CoV Urbani [1] | Binding of Control serum Blood-bank to linear peptides [2]
